Measurements taken from ChEMBL document CHEMBL3885861, “Open TG-GATES”.

Organism: Rattus norvegicus
Test: Open TG-GATES - Regimen: Daily Repeat
Format: toxicity, organism-based, Sprague-Dawley
Set-up: regimen Daily Repeat, gender Male, age 6 weeks
Details: in vivo, po, 100 mg/kg, route gavage, dose level Low; for APTT / Bas / Eos / Fbg / Hb / Ht / Lym / MCH / MCHC / MCV / Mono / Neu / PT / Plat / RBC / Ret / WBC: tissue Blood; for KIDNEY_L / KIDNEY_R / KIDNEY_TOTAL: tissue Kidney; for LIVER: tissue Liver; for A/G / ALP / ALT / AST / BUN / CRE / Ca / Cl / DBIL / GLC / IP / K / LDH / Na / PL / RALB / TBIL / TC / TG / TP / gamma-GTP: tissue Plasma

SMILES: CN(C)[C@@H]1C(O)=C(C(N)=O)C(=O)[C@@]2(O)C(O)=C3C(=O)c4c(O)cccc4[C@@](C)(O)[C@H]3C[C@@H]12 [TETRACYCLINE]
- TERMINAL_BW (72 h, time 3 day): 197.6 g
- APTT (72 h, time 3 day): 16.3 s
- Bas (72 h, time 3 day): 0%
- Eos (72 h, time 3 day): 0.8%
- Fbg (72 h, time 3 day): 225.6 mg/dL
- Hb (72 h, time 3 day): 13.2 g/dL
- Ht (72 h, time 3 day): 39.6%
- Lym (72 h, time 3 day): 85%
- MCH (72 h, time 3 day): 21.7 pg
- MCHC (72 h, time 3 day): 33.4%
- MCV (72 h, time 3 day): 65.1 fL
- Mono (72 h, time 3 day): 5.2%
- Neu (72 h, time 3 day): 9%
- PT (72 h, time 3 day): 12.1 s
- Plat (72 h, time 3 day): 103.9 x10_4/uL
- RBC (72 h, time 3 day): 608.6 x10_4/ul
- Ret (72 h, time 3 day): 7.9%
- WBC (72 h, time 3 day): 100.3 x10_2/uL
- KIDNEY_L (72 h, time 3 day): 0.9 g
- KIDNEY_R (72 h, time 3 day): 0.9 g
- KIDNEY_TOTAL (72 h, time 3 day): 1.8 g
- LIVER (72 h, time 3 day): 9.3 g
- A/G (72 h, time 3 day): 2.1
- ALP (72 h, time 3 day): 900.4 IU/L
- ALT (72 h, time 3 day): 40.6 IU/L
- AST (72 h, time 3 day): 73.4 IU/L
- BUN (72 h, time 3 day): 16.8 mg/dL
- CRE (72 h, time 3 day): 0.6 mg/dL
- Ca (72 h, time 3 day): 11.2 mg/dL
- Cl (72 h, time 3 day): 106.4 meq/L
- DBIL (72 h, time 3 day): 0 mg/dL
- GLC (72 h, time 3 day): 195.6 mg/dL
- IP (72 h, time 3 day): 9 mg/dL
- K (72 h, time 3 day): 4.8 meq/L
- LDH (72 h, time 3 day): 134.4 IU/L
- Na (72 h, time 3 day): 140 meq/L
- PL (72 h, time 3 day): 145.2 mg/dL
- RALB (72 h, time 3 day): 3.9 g/dL
- TBIL (72 h, time 3 day): 0.3 mg/dL
- TC (72 h, time 3 day): 86.2 mg/dL
- TG (72 h, time 3 day): 48.8 mg/dL
- TP (72 h, time 3 day): 5.7 g/dL
- gamma-GTP (72 h, time 3 day): 0.8 IU/L
- TERMINAL_BW ([…], time 7 day): 227.4 g
- TERMINAL_BW ([…], time 14 day): 271.9 g
- TERMINAL_BW ([…], time 28 day): 346.9 g
- APTT ([…], time 7 day): 16.7 s
- Bas ([…], time 7 day): 0%
- Eos ([…], time 7 day): 1%
- Fbg ([…], time 7 day): 241 mg/dL
- Hb ([…], time 7 day): 13.5 g/dL
- Ht ([…], time 7 day): 40.2%
- Lym ([…], time 7 day): 85.2%
- MCH ([…], time 7 day): 21 pg
- MCHC ([…], time 7 day): 33.6%
- MCV ([…], time 7 day): 62.3 fL
- Mono ([…], time 7 day): 6.2%
- Neu ([…], time 7 day): 8%
- PT ([…], time 7 day): 12 s
- Plat ([…], time 7 day): 101.8 x10_4/uL
- RBC ([…], time 7 day): 645.8 x10_4/ul
- Ret ([…], time 7 day): 6.6%
- WBC ([…], time 7 day): 114 x10_2/uL
- APTT ([…], time 14 day): 16.5 s
- Bas ([…], time 14 day): 0%
- Eos ([…], time 14 day): 0.6%
- Fbg ([…], time 14 day): 229.6 mg/dL
- Hb ([…], time 14 day): 13.9 g/dL
- Ht ([…], time 14 day): 41.7%
- Lym ([…], time 14 day): 91.2%
- MCH ([…], time 14 day): 20.9 pg
- MCHC ([…], time 14 day): 33.5%
- MCV ([…], time 14 day): 62.5 fL
- Mono ([…], time 14 day): 2.4%
- Neu ([…], time 14 day): 6.2%
- PT ([…], time 14 day): 11.7 s
- Plat ([…], time 14 day): 108.7 x10_4/uL
- RBC ([…], time 14 day): 667.2 x10_4/ul
- Ret ([…], time 14 day): 5.5%
- WBC ([…], time 14 day): 180.6 x10_2/uL
- APTT ([…], time 28 day): 17.5 s
- Bas ([…], time 28 day): 0%
- Eos ([…], time 28 day): 1%
- Fbg ([…], time 28 day): 230.2 mg/dL
- Hb ([…], time 28 day): 14.8 g/dL
- Ht ([…], time 28 day): 44.5%
- Lym ([…], time 28 day): 90%
- MCH ([…], time 28 day): 19 pg
- MCHC ([…], time 28 day): 33.4%
- MCV ([…], time 28 day): 57.1 fL
- Mono ([…], time 28 day): 3.8%
- Neu ([…], time 28 day): 5.2%
- PT ([…], time 28 day): 12.1 s
- Plat ([…], time 28 day): 81 x10_4/uL
- RBC ([…], time 28 day): 780 x10_4/ul
- Ret ([…], time 28 day): 3.2%
- WBC ([…], time 28 day): 163.8 x10_2/uL
- KIDNEY_L ([…], time 7 day): 1 g
- KIDNEY_R ([…], time 7 day): 1.1 g
- KIDNEY_TOTAL ([…], time 7 day): 2.1 g
- KIDNEY_L ([…], time 14 day): 1.1 g
- KIDNEY_R ([…], time 14 day): 1.1 g
- KIDNEY_TOTAL ([…], time 14 day): 2.2 g
- KIDNEY_L ([…], time 28 day): 1.2 g
- KIDNEY_R ([…], time 28 day): 1.2 g
- KIDNEY_TOTAL ([…], time 28 day): 2.4 g
- LIVER ([…], time 7 day): 11.4 g
- LIVER ([…], time 14 day): 11.8 g
- LIVER ([…], time 28 day): 13.6 g
- A/G ([…], time 7 day): 2.1
- ALP ([…], time 7 day): 738 IU/L
- ALT ([…], time 7 day): 37.3 IU/L
- AST ([…], time 7 day): 71 IU/L
- BUN ([…], time 7 day): 19.7 mg/dL
- CRE ([…], time 7 day): 0.6 mg/dL
- Ca ([…], time 7 day): 11.4 mg/dL
- Cl ([…], time 7 day): 105 meq/L
- DBIL ([…], time 7 day): 0.0033 mg/dL
- GLC ([…], time 7 day): 181.3 mg/dL
- IP ([…], time 7 day): 9.9 mg/dL
- K ([…], time 7 day): 5 meq/L
- LDH ([…], time 7 day): 105.7 IU/L
- Na ([…], time 7 day): 140 meq/L
- PL ([…], time 7 day): 164.7 mg/dL
- RALB ([…], time 7 day): 3.9 g/dL
- TBIL ([…], time 7 day): 0.3 mg/dL
- TC ([…], time 7 day): 86.3 mg/dL
- TG ([…], time 7 day): 87.7 mg/dL
- TP ([…], time 7 day): 5.9 g/dL
- gamma-GTP ([…], time 7 day): 1.7 IU/L
- A/G ([…], time 14 day): 2.3
- ALP ([…], time 14 day): 983.4 IU/L
- ALT ([…], time 14 day): 35.8 IU/L
- AST ([…], time 14 day): 66.6 IU/L
- BUN ([…], time 14 day): 17.2 mg/dL
- CRE ([…], time 14 day): 0.6 mg/dL
- Ca ([…], time 14 day): 10.9 mg/dL
- Cl ([…], time 14 day): 104.4 meq/L
- DBIL ([…], time 14 day): 0.002 mg/dL
- GLC ([…], time 14 day): 177 mg/dL
- IP ([…], time 14 day): 8.3 mg/dL
- K ([…], time 14 day): 4.6 meq/L
- LDH ([…], time 14 day): 79.2 IU/L
- Na ([…], time 14 day): 141 meq/L
- PL ([…], time 14 day): 149.6 mg/dL
- RALB ([…], time 14 day): 4.1 g/dL
- TBIL ([…], time 14 day): 0.4 mg/dL
- TC ([…], time 14 day): 71 mg/dL
- TG ([…], time 14 day): 107.4 mg/dL
- TP ([…], time 14 day): 5.9 g/dL
- gamma-GTP ([…], time 14 day): 2.6 IU/L
- A/G ([…], time 28 day): 1.7
- ALP ([…], time 28 day): 765.4 IU/L
- ALT ([…], time 28 day): 30.2 IU/L
- AST ([…], time 28 day): 61.8 IU/L
- BUN ([…], time 28 day): 19.8 mg/dL
- CRE ([…], time 28 day): 0.6 mg/dL
- Ca ([…], time 28 day): 10.8 mg/dL
- Cl ([…], time 28 day): 107.2 meq/L
- DBIL ([…], time 28 day): 0.032 mg/dL
- GLC ([…], time 28 day): 173.8 mg/dL
- IP ([…], time 28 day): 7.5 mg/dL
- K ([…], time 28 day): 4.2 meq/L
- LDH ([…], time 28 day): 88.2 IU/L
- Na ([…], time 28 day): 141.4 meq/L
- PL ([…], time 28 day): 154 mg/dL
- RALB ([…], time 28 day): 3.8 g/dL
- TBIL ([…], time 28 day): 0.3 mg/dL
- TC ([…], time 28 day): 73.8 mg/dL
- TG ([…], time 28 day): 141.8 mg/dL
- TP ([…], time 28 day): 6.2 g/dL
- gamma-GTP ([…], time 28 day): 1.2 IU/L
